According to patent US12421226B2, “Heteroaryl compounds as necrosis inhibitors, composition and method using the same” (Accro Bioscience (HK), priority 2019, dated 2025):

Columns and labels:
[1] = test system: L929 mouse skin fibroblast cells; assay: Necroptosis inhibition in L929 cell assay (TNF-α/z-VAD induced, cell viability by ATP levels); format: cell-based; conditions: 1 h pre-treatment with compound, then TNF-α 40 ng/mL + z-VAD 20 μM for 48 hours
Method: 2. Compounds Tested for Necroptosis Inhibition Activities in L929 Cell Assay
(§1) Mouse L929 mouse skin fibroblast cells were added to 96-well plates and then were pre-treated with 10 μM of the test compound for one hour. Then the cells were treated with TNF-α (40 ng/mL, lab-made) and z-VAD (capase inhibitor, from calbiochem) (20 μM) for 48 hours, and the viability of cells was quantified by detecting adenosine triphosphate (ATP) levels. DMSO pretreatment group was used as negative controls, Nec-1 (known necroptosis inhibitor, from Biomol) pretreatment group was used as positive controls.

HT29 cells = assay: Necroptosis inhibition in HT29 cell assay (TNF-α/Smac mimetic/z-VAD induced, cell viability); format: cell-based; conditions: then TNF-α 40 ng/mL + Smac mimetic 100 nM + z-VAD 20 μM for 48 hours
Method: 1. Compounds Tested for Necroptosis Inhibition Activities in HT29 Cell Assay
as §1, with “For this assay, HT29” for “Mouse L929 mouse skin fibroblast”, “tumor necrosis factor alpha (TNF-α, 40 ng/mL), Smacmimetic (cIAP inhibitor) (100 nM)” for “TNF-α (40 ng/mL, lab-made)”, “quantified.” for “quantified by detecting adenosine triphosphate (ATP) levels.”

[2] = Homo sapiens, HT-29, 1 h pre-treatment with compound

Row | SMILES | IC50 ([1]; Mus musculus) [nM] | IC50 (HT29 cells; [2]) [nM] | IC50 [1] [nM] | IC50 (HT29 cells; 1 h pre-treatment with compound) [nM]
1 | O=C(Nc1cn2cc(-c3cnc4ccn(C(=O)OC5CCOCC5)c4c3)ccc2n1)C1CC1 [Compound C6, tetrahydropyran-4-yl 6-[2-(cyclopropanecarbonylamino)imidazo-[1,2-a]pyridin-6-yl]pyrrolo[3,2-b]pyridine-1-carboxylate] | 50 | 56 | – | –
2 | O=C(Nc1nc2ccc(-c3cnc4ccn(C(=O)CC5CCOCC5)c4c3)cc2s1)C1CC1 [Compound C8, N-[6-[1-(2-tetrahydropyran-4-ylacetyl)pyrrolo[3,2-b]pyridin-6-yl]-1,3-benzothiazol-2-yl]cyclopropanecarboxamide] | 17 | 440 | – | –
3 | O=C(NC1CCOCC1)c1csc2ncc(-c3ccc4nc(NC(=O)C5CC5)sc4c3)cc12 [Compound C12, 5-[2-(cyclopropanecarbonylamino)-1,3-benzothiazol-6-yl]-N-tetrahydropyran-4-yl-thieno[2,3-b]pyridine-3-carboxamide] | 1.5 | 7.3 | – | –
4 | O=C(NC1CCOCC1)c1nsc2ncc(-c3ccc4nc(NC(=O)C5CC5)sc4c3)cc12 [Compound C14, 5-[2-(cyclopropanecarbonylamino)-1,3-benzothiazol-6-yl]-N-tetrahydropyran-4-yl-isothiazolo[5,4-b]pyridine-3-carboxamide] | 1.3 | 4.7 | – | –
5 | O=C(NC1CCCCC1)c1csc2ncc(-c3ccc4nc(NC(=O)C5CC5)sc4c3)cc12 [Compound C18, N-cyclohexyl-5-[2-(cyclopropanecarbonylamino)-1,3-benzothiazol-6-yl]thieno[2,3-b]pyridine-3-carboxamide] | 0.3 | 1 | – | –
6 | CNC(=O)Nc1nc2ccc(-c3cnc4scc(C(=O)NC5CCCCC5)c4c3)cc2s1 [Compound C20, N-cyclohexyl-5-[2-(methylcarbamoylamino)-1,3-benzothiazol-6-yl]thieno[2,3-b]pyridine-3-carboxamide] | 0.6 | 1.6 | – | –
7 | O=C(NC1CCCCC1)c1nsc2ncc(-c3ccc4nc(NC(=O)C5CC5)sc4c3)cc12 [Compound C23, N-cyclohexyl-5-[2-(cyclopropanecarbonylamino)-1,3-benzothiazol-6-yl]isothiazolo[5,4-b]pyridine-3-carboxamide] | 1.7 | 5.3 | – | –
8 | O=C(NC1CCC(F)(F)CC1)c1nsc2ncc(-c3ccc4nc(NC(=O)C5CC5)sc4c3)cc12 [Compound C30, 5-[2-(cyclopropanecarbonylamino)-1,3-benzothiazol-6-yl]-N-(4,4-difluorocyclohexyl)isothiazolo[5,4-b]pyridine-3-carboxamide] | 0.8 | 10 | – | –
9 | O=C(Nc1nc2ccc(-c3cnc4ccn(C(=O)NC5CCCCC5)c4c3)cc2s1)C1CC1 [Compound C33, N-cyclohexyl-6-[2-(cyclopropanecarbonylamino)-1,3-benzothiazol-6-yl]pyrrolo[3,2-b]pyridine-1-carboxamide] | 0.3 | 4.6 | – | –
10 | CN1CCC(NC(=O)c2nsc3ncc(-c4ccc5nc(NC(=O)C6CC6)sc5c4)cc23)CC1 [Compound C42, 5-(2-(cyclopropanecarboxamido)benzo[d]thiazol-6-yl)-N-(1-methylpiperidin-4-yl)isothiazolo[5,4-b]pyridine-3-carboxamide] | 321 | 3000 | – | –
11 | CN1C(=O)C(Cc2c[nH]c3ccccc23)NC1=S (stereo not shown) [Nec-1, reference compound] | – | – | 1250 | 300
